Read-outs that look alike come from different tables or passages of the source.
Legend:
Botrytis cinerea [1] = experiment: Example B: in vivo test on Botrytis cinerea (grey mould on cucumbers); conditions: cucumber plants sprayed 24 hours before inoculation, scored after 5-7 days, read-out: % Wirkungsgrad
Procedure: In Vivo Test on Botrytis Cinerea (Grey Mould on Cucumbers) An aqueous suspension of the active substance was prepared by homogenization of a mixture of acetone/Tween/dimethyl sulphoxide and subsequent dilution with water to the desired concentration. Cucumber plants (variety: Vert petit de Paris) are sown in cultivation dishes on a peat-pozzolanic earth substrate (50/50) at 18-20° C. and sprayed at the cotyledon stage Z11 with the aqueous suspension described above. As a control, plants are sprayed with an aqueous solution with no active substance. […] The spores are derived from a 15 day-old culture which are suspended in the following nutrient solution: • 20 g/l gelatine • 50 g/l D-fructose • 2 g/l NH4NO3 • 1 g/l KH2PO4 The inoculated cucumber plants are kept for 5-7 days in a climatic chamber at […] After 5-7 days they are scored in comparison with the control plants.

Alternaria brassicae = experiment: Example C: in vivo test on Alternaria brassicae (leaf spot disease on radishes); conditions: 500 ppm; radish plants sprayed 24 hours before inoculation; scored after 6-7 days
Procedure: In Vivo Test on Alternaria Brassicae (Leaf Spot Disease on Radishes) An aqueous suspension of the active substance was prepared by homogenization of a mixture of acetone/Tween/dimethyl sulphoxide and subsequent dilution with water to the desired concentration. Radish plants (variety: Pernot) are sown in cultivation dishes on a peat-pozzolanic earth substrate (50/50) at 18-20° C. and sprayed at the cotyledon stage with the aqueous suspension described above. As a control, plants are sprayed with an aqueous solution with no active substance. After 24 hours, the plants are inoculated by spraying with an aqueous suspension of Alternaria brassicae spores (40,000 spores per ml). The spores are derived from a 12 to 13 day-old culture. The inoculated radish plants are incubated for 6-7 days at ca. 18° C. in a humid atmosphere. After 6-7 days they are scored in comparison with the control plants.

Sphaerotheca fuliginea = experiment: Example D: in vivo test on Sphaerotheca fuliginea (powdery mildew on cucumber); conditions: Podosphaera fuliginea, 288 h, cucumber plants sprayed 24 hours before inoculation, scored after 12 days, read-out: % Wirkungsgrad
Procedure, shortened: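 Scoring took place 12 days after spore inoculation (100,000 spores/ml, at ca. 20/25° C., 60/70% RH) and was made against plants sprayed without active substance. Inoculation followed by 24 hours a spray of water-diluted acetone/Tween/DMSO compound suspension onto Z10 cotyledon-stage cucumbers.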

Pyrenophora teres = experiment: Example E: in vivo test on Pyrenophora teres (barley net blotch disease); conditions: Pyrenophora teres, 288 h, barley plants sprayed 24 hours before inoculation, scored after 12 days, read-out: % Wirkungsgrad
Procedure: In Vivo Test on Pyrenophora Teres (Barley Net Blotch Disease) An aqueous suspension of the active substance was prepared by homogenization of a mixture of acetone/Tween/dimethyl sulphoxide and subsequent dilution with water to the desired concentration. Barley plants (variety: Plaisant) are sown in cultivation dishes on a peat-pozzolanic earth substrate (50/50) at 12° C. and sprayed at the first-leaf stage (10 cm size) with the aqueous suspension described above. As a control, plants are sprayed with an aqueous solution with no active substance. After 24 hours the plants are inoculated by spraying with an aqueous suspension of Pyrenophora teres spores (12,000 spores per ml). The spores are derived from a 12 day-old culture. […] After 12 days they are scored in comparison with the control plants.

Venturia inaequalis = experiment: Example O: in vivo test on Venturia inaequalis (apple scab/protective); conditions: 240 h, protective, assessment 10 days after inoculation, read-out: % Wirkungsgrad
Procedure, shortened: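 Young plants received a preventive spray of compound formulated as an emulsifier-containing aqueous dilution at the given application rate, then were inoculated with apple scab fungus. Disease was scored 10 days post-inoculation.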

Botrytis cinerea [2] = experiment: Example P: in vivo test on Botrytis cinerea (gray mould on bean/protective); conditions: 48 h, bean, protective, 250 ppm active substance, assessed 2 days after inoculation, read-out: % Wirkungsgrad (activity level)
Procedure, shortened: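 Infection blotch size on leaves was scored 2 days after placing 2 Botrytis-colonised agar pieces per leaf. Inoculation followed drying of a protective spray applied to young plants at the stated dosage. Spray was prepared by diluting compound with solvent and alkylaryl polyglycol ether emulsifier in water.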

Leptosphaeria nodorum = experiment: Example Q: in vivo test on Leptosphaeria nodorum (glume blotch in wheat/protective); conditions: Parastagonospora nodorum, 192 h, wheat, protective, assessment 8 days after inoculation, read-out: % Wirkungsgrad
Procedure, shortened: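 Protective test: young wheat plants sprayed with compound formulated in N,N-dimethylacetamide plus alkylaryl polyglycol ether emulsifier, diluted in water to the stated dose. After drying, plants inoculated with L. nodorum spore suspension; disease assessed 8 days post-inoculation.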

[3] = test system: Fusarium nivale (var. majus); experiment: whole plant or invertebrate; type: in vivo; conditions: Microdochium nivale, in Triticum aestivum, 120 h, read-out: % Wirkungsgrad (activity level)
Pyricularia oryzae = experiment: whole plant or invertebrate; type: in vivo; conditions: 120 h, read-out: % Activity level
Cochliobolus miyabeanus = experiment: Example X: in vivo test on Cochliobolus miyabeanus (brown spot disease, rice/protective); conditions: Bipolaris oryzae, 96 h, read-out: % Activity level
Fusarium proliferatum = experiment: Example I: production of fumonisin FB1 by Fusarium proliferatum (microtitre plates); type: cell-based; conditions: 120 h
[4] = Fusarium proliferatum growth, OD 620, 5 days, read-out: % Inhibition des Pilzwachstums bei 50 μM
[5] = Fusarium proliferatum, 5 days at 20° C., HPLC-MS/MS, read-out: % Inhibition der FB1 produktion bei 50 μM

| Compound | pest or weed control at 500 ppm (Botrytis cinerea [1]) [%] | % Activity level (Alternaria brassicae) [%] | pest or weed control at 500 ppm (Sphaerotheca fuliginea) [%] | pest or weed control at 500 ppm (Pyrenophora teres) [%] | pest or weed control at 100 ppm (Venturia inaequalis) [%] | pest or weed control at 250 ppm (Botrytis cinerea [2]) [%] | pest or weed control at 1000 ppm (Leptosphaeria nodorum) [%] | pest or weed control at 1000 ppm [3] [%] | pest or weed control at 250 ppm (Pyricularia oryzae) [%] | pest or weed control at 250 ppm (Cochliobolus miyabeanus) [%] | inhibition at 50 µM (Fusarium proliferatum; [4]) [%] | inhibition at 50 µM (Fusarium proliferatum; [5]) [%] |
| --- | --- | --- | --- | --- | --- | --- | --- | --- | --- | --- | --- | --- |
| CC(C)Cn1cc(-c2ccncc2)c(-c2ccc(F)cc2)n1 [Compound 1] | 100 | 94 | 100 | 96 | 99 | 99 | 100 | 92 | 80 | 85 | – | – |
| CC(C)C(=O)Nc1cc(-c2cn(C(C)C)nc2-c2ccc(F)cc2)ccn1 [Compound 84] | 100 | 75 | 100 | – | 100 | 99 | 100 | 100 | 85 | 93 | 88 | 100 |
| CCC(=O)Nc1cc(-c2cn(C(C)C)nc2-c2ccc(F)cc2)ccn1 [Compound 85] | 100 | – | 100 | 75 | 88 | 100 | 100 | 100 | 80 | 90 | 95 | 100 |
| CC(C)n1cc(-c2ccnc(NC(=O)C3CC3)c2)c(-c2ccc(F)cc2)n1 [Compound 86] | 100 | 75 | 100 | 81 | 96 | 100 | 100 | 100 | 93 | 80 | 96 | 100 |

— patent US20110183978A1, “Phenylpyri(mi)dinylazoles” (Bayer CropScience AG, priority 2009, published 2011)
